In patent US20080293699A1, “Inhibitors of thapsigargin-induced cell death” (priority 2007, published 2008):
Where two headings read alike, the source gives them in different places.

Tested on: CSM14.1 cells
Assay: Primary HTS assay: ATP content (ATPlite) of undifferentiated CSM14.1 cells challenged with thapsigargin
Assay type: cell-based, rat
Conditions: for IC50: thapsigargin-induced death of undifferentiated CSM14.1, ATP content
Outline: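 Undifferentiated CSM14.1 cells, 3,000/well, cultured overnight at 32 °C, then test compounds at ~15 μg/mL final (1% DMSO) added. Thapsigargin ~15 μM final given after 2 h; ATPlite luminescence read after 24 h as survival surrogate, with 100 μM Salubrinal as maximum and DMSO as minimum.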

[1] = one value given, read-out: IC50
[2] = first assay, read-out: IC50 (μM), first value
[3] = second assay (value in bold), read-out: IC50 (μM), value from a second assay

| SMILES | Cytoprotective activity, stimulus Thapsigargin (Result) (readout ATP & Annexin, CSM 14.1, compound ≦25 μM) | IC50 [1] [µM] | IC50 [2] [µM] | IC50 [3] [µM] |
| --- | --- | --- | --- | --- |
| CCN(CC)c1ccc(C2Nc3ccccc3NC3=C2C(=O)CC(c2ccccc2)C3)cc1 (centres unmarked) [Compound 5962123, 6-(4-diethylaminophenyl)-9-phenyl-5,6,8,9,10,11-hexahydrobenzo[c][1,5]benzodiazepin-7-one] | + (+indicates ≧50% rescue of cell viability relative to untreated cells not exposed to thapsigargin at compound concentration of ≦25 μM) | 7.5 ± 0.857 | – | – |
| COc1ccc(C2CC(=O)C3=C(C2)Nc2ccccc2NC3c2ccccc2C(F)(F)F)cc1OC (centres unmarked) [Compound 6237735] | – | 12.5 ± 0.186 | 17.2 ± 0.471 | 12.5 ± 0.186 |
| COc1ccc(C2CC(=O)C3=C(C2)Nc2ccccc2NC3c2cccc(Oc3ccccc3)c2)cc1OC (centres unmarked) [Compound 6239507] | – | 10.2 ± 1.62 | 13.9 ± 0.26 | 10.2 ± 1.62 |
